Measurements: patent publication US4129648A, “Method for reducing endogenous prostaglandin synthesis” (priority 1977, dated 1978)

System: prostaglandin synthetase of bovine seminal vesicles
Experiment: Inhibition of conversion of arachidonic acid into PGE2 and PGF2α by BSV prostaglandin synthetase, cascade bioassay
Format: biochemical
Description: The high molecular weight mammalian blood plasma or serum extract of the present invention was tested for PG synthesis-inhibiting properties by determining the ability of the extract to inhibit the conversion of arachidonic acid into PGE2 and PGF2α by PG synthetase present in BSV, in the presence of optimal amounts of the cofactor glutathione, (reduced form). Specifically, the inhibitory properties of the extract were determined by a cascade bioassay technique [Collier et al., Brit. J. Pharmac., 58, 193-199 (1976)] involving measurement of prostaglandin activity against response.
The ability of the purified mammalian serum extract to inhibit the enzymatic conversion of arachidonic acid by prostaglandin synthetase obtained from BSV was determined by bioassay on tissues which are known to be contracted by naturally occurring PGs. Segments of rat or hamster stomach fundus (stomach strip) were obtained as described in Brit. J. Pharmacol. Vol. 5, 173 (1950), Vol. 6, 32 (1953), Vol. 12, 344 (1957), and Vol. 23, 351 (1964). […]
A dose of standard PGE2 is put over the tissues by means of the roller pump and the tissue response measured by recording the tissue contraction. […] Alternately, the protein content of the solution can be determined by known techniques, such as the biuret reaction or Kjeldahl method, and the test value expressed in ng. […]

haptoglobin obtained from Cohn subfraction IV4 by the above procedure: haptoglobin from Cohn subfraction IV4 by second procedure: ethacridine lactate precipitation and chromatography
Inhibition of PG synthesis (in words): demonstrated an ability to inhibit
